Experimental data published in the supplement of paper PMC8617591.

Tests used:
[1] = tested on: Mycobacterium tuberculosis Erdman (autoluminescent); experiment: total FIC50 (Loewe) at 50% inhibition, three-drug combination (log2); higher = more antagonistic
Procedure: (§1)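 DiaMOND equipotent three-drug combination dose responses (10 doses, 1.5- or 2-fold spacing, centred on IC90) against autoluminescent M. tuberculosis Erdman in 8 in vitro models. Read-out is OD600, or luminescence for the intracellular and dormancy models, normalised to untreated wells. Hill-fit Einf, AUC25 and GRinf are potency metrics; FIC50 and FIC90 are total Loewe fractional inhibitory concentrations as log2 (negative = synergy).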

[2] = tested on: Mycobacterium tuberculosis Erdman (autoluminescent); experiment: total FIC90 (Loewe) at 90% inhibition, three-drug combination (log2); higher = more antagonistic
Procedure: as §1

[3] = tested on: Mycobacterium tuberculosis Erdman (autoluminescent); experiment: Einf, fitted maximum growth inhibition of three-drug combination (fraction); higher = stronger maximal inhibition
Procedure: as §1

[4] = tested on: Mycobacterium tuberculosis Erdman (autoluminescent); experiment: AUC25, normalised area under dose response up to IC25 (three-drug combination) (fraction (0-1)); higher = more potent at low dose
Procedure: as §1

[5] = tested on: Mycobacterium tuberculosis Erdman (autoluminescent); experiment: GRinf, maximum normalised growth rate inhibition (three-drug combination) (unitless (-1 to 1)); higher = less effect (negative = killing)
Procedure: as §1

CC(C)/N=c1\cc2n(-c3ccc(Cl)cc3)c3ccccc3nc-2cc1Nc1ccc(Cl)cc1 [clofazimine] + NNC(=O)c1ccncc1 [isoniazid] + COc1c(N2C[C@@H]3CCCN[C@@H]3C2)c(F)cc2c(=O)c(C(=O)O)cn(C3CC3)c12 [moxifloxacin]
Conditions	AUC25, [4]	Einf, [3]	GRinf, [5]	total FIC50, [1]	total FIC90, [2]
in vitro model: acidic pH 5.7, time point: constant (~7 days, model-specific)	0.148	0.438	0.301	–	–
in vitro model: acidic pH 5.7, time point: terminal (~4-5 doublings, model-specific)	0.0974	0.923	-0.33	0.581	0.708
in vitro model: intracellular J774, time point: constant = terminal	–	1	-0.424	–	0.642

Conditions	AUC25, [4]	Einf, [3]	GRinf, [5]	total FIC50, [1]	total FIC90, [2]
in vitro model: butyrate, time point: constant (~7 days, model-specific)	0.0935	0.949	-0.0926	0.57	1.04
in vitro model: butyrate, time point: terminal (~4-5 doublings, model-specific)	0.0779	0.981	-0.0848	0.531	0.768
in vitro model: cholesterol 0.05 mM, time point: constant (~7 days, model-specific)	0.131	0.707	-0.174	0.411	–
in vitro model: cholesterol 0.05 mM, time point: terminal (~4-5 doublings, model-specific)	0.119	0.919	-0.228	0.344	0.0839
in vitro model: cholesterol-high 0.2 mM, time point: constant (~7 days, model-specific)	0.102	0.943	-0.266	0.253	0.868
in vitro model: cholesterol-high 0.2 mM, time point: terminal (~4-5 doublings, model-specific)	0.0858	1	-0.61	0.464	0.399
in vitro model: dormancy (butyrate + nitrate, low O2), time point: constant (~7 days, model-specific)	0.094	0.929	0.151	0.252	-0.33
in vitro model: dormancy (butyrate + nitrate, low O2), time point: terminal (~4-5 doublings, model-specific)	0.0919	0.988	-0.177	0.0561	1.09
in vitro model: standard 7H9 glycerol, time point: constant = terminal	0.0829	0.977	-0.209	0.374	0.44
in vitro model: valerate, time point: constant (~7 days, model-specific)	0.079	0.84	0.0938	0.474	–
in vitro model: valerate, time point: terminal (~4-5 doublings, model-specific)	0.0672	0.917	0.0935	0.256	0.99

CC(C)/N=c1\cc2n(-c3ccc(Cl)cc3)c3ccccc3nc-2cc1Nc1ccc(Cl)cc1 [clofazimine] + NNC(=O)c1ccncc1 [isoniazid] + NC(=O)c1cnccn1 [pyrazinamide]
Conditions	AUC25, [4]	Einf, [3]	GRinf, [5]	total FIC50, [1]	total FIC90, [2]
in vitro model: acidic pH 5.7, time point: constant (~7 days, model-specific)	0.105	0.819	-0.294	0.25	–
in vitro model: acidic pH 5.7, time point: terminal (~4-5 doublings, model-specific)	0.0972	0.977	-0.35	-0.0265	-0.409
in vitro model: intracellular J774, time point: constant = terminal	–	0.964	-0.705	–	0.267

Conditions	AUC25, [4]	Einf, [3]	GRinf, [5]	total FIC50, [1]	total FIC90, [2]
in vitro model: butyrate, time point: constant (~7 days, model-specific)	0.112	0.953	-0.112	-0.201	0.915
in vitro model: butyrate, time point: terminal (~4-5 doublings, model-specific)	0.0804	0.968	-0.0686	-0.0738	0.168
in vitro model: cholesterol 0.05 mM, time point: constant (~7 days, model-specific)	0.131	0.74	-0.217	–	–
in vitro model: cholesterol 0.05 mM, time point: terminal (~4-5 doublings, model-specific)	0.132	0.924	-0.252	0.486	–
in vitro model: cholesterol-high 0.2 mM, time point: constant (~7 days, model-specific)	0.0931	0.938	-0.335	0.341	–
in vitro model: cholesterol-high 0.2 mM, time point: terminal (~4-5 doublings, model-specific)	0.0853	0.997	-0.517	0.634	0.384
in vitro model: dormancy (butyrate + nitrate, low O2), time point: constant (~7 days, model-specific)	0.0828	0.88	0.259	-0.675	-0.607
in vitro model: dormancy (butyrate + nitrate, low O2), time point: terminal (~4-5 doublings, model-specific)	0.0727	0.986	-0.174	-0.286	0.161
in vitro model: standard 7H9 glycerol, time point: constant = terminal	0.114	0.942	-0.135	0.447	–
in vitro model: valerate, time point: constant (~7 days, model-specific)	0.119	0.86	0.022	-0.0616	–
in vitro model: valerate, time point: terminal (~4-5 doublings, model-specific)	0.0674	0.933	0.0539	0.187	0.474

CC(C)/N=c1\cc2n(-c3ccc(Cl)cc3)c3ccccc3nc-2cc1Nc1ccc(Cl)cc1 [clofazimine] + NNC(=O)c1ccncc1 [isoniazid] + O=[N+]([O-])c1cn2c(n1)OC[C@@H](OCc1ccc(OC(F)(F)F)cc1)C2 [pretomanid]
Conditions	AUC25, [4]	Einf, [3]	GRinf, [5]	total FIC50, [1]	total FIC90, [2]
in vitro model: acidic pH 5.7, time point: constant (~7 days, model-specific)	0.0904	0.772	-0.0866	-0.103	–
in vitro model: acidic pH 5.7, time point: terminal (~4-5 doublings, model-specific)	0.0916	0.963	-0.274	0.278	0.567
in vitro model: intracellular J774, time point: constant = terminal	–	0.976	-0.35	–	0.28

Conditions	AUC25, [4]	Einf, [3]	GRinf, [5]	total FIC50, [1]	total FIC90, [2]
in vitro model: butyrate, time point: constant (~7 days, model-specific)	0.106	0.965	-0.205	0.629	1.4
in vitro model: butyrate, time point: terminal (~4-5 doublings, model-specific)	0.0874	0.989	-0.14	0.581	1.02
in vitro model: cholesterol 0.05 mM, time point: constant (~7 days, model-specific)	0.119	0.713	-0.0879	0.824	–
in vitro model: cholesterol 0.05 mM, time point: terminal (~4-5 doublings, model-specific)	0.0944	0.912	-0.156	7.01	0.912
in vitro model: cholesterol-high 0.2 mM, time point: constant (~7 days, model-specific)	0.102	0.971	-0.31	0.301	–
in vitro model: cholesterol-high 0.2 mM, time point: terminal (~4-5 doublings, model-specific)	0.0894	1	-0.709	0.306	0.374
in vitro model: dormancy (butyrate + nitrate, low O2), time point: constant (~7 days, model-specific)	0.0958	0.93	0.217	-0.236	-0.894
in vitro model: dormancy (butyrate + nitrate, low O2), time point: terminal (~4-5 doublings, model-specific)	0.0744	0.987	-0.177	-0.374	-0.0746
in vitro model: standard 7H9 glycerol, time point: constant = terminal	0.116	0.949	-0.229	0.139	0.594
in vitro model: valerate, time point: constant (~7 days, model-specific)	0.15	0.918	-0.199	0.901	2.23
in vitro model: valerate, time point: terminal (~4-5 doublings, model-specific)	0.0945	0.942	-0.0153	0.511	2.01
